# Reference: US5359121A, “Glycine derivative monosodium salt tetrahydrate” (Ono Pharmaceutical Co., Ltd., priority 1991, dated 1994)
# Key:
# [1] = Experiment of hygroscopicity; type: physicochemical; settings: exposure to air / 25° C., humidity of 75%
# Description: The hygroscopicity of each compound was measured by the ratio of its weight to lapse of time.
Compound,"hygroscopicity (result in words) ([1]; listed as the monosodium salt of the compound of the formula (II), monosodium salt)",hygroscopicity (result in words) ([1]; monosodium salt),toxicity (Toxicity),hygroscopicity (result in words) [1]
"CC(C)(C)C(=O)Oc1ccc(S(=O)(=O)Nc2ccccc2C(=O)NCC(=O)[O-])cc1.[Na+] [the comparison compound, N-[o-(p-pivaloyloxybenzenesulfonylamino)benzoyl]glycine monosodium salt]",hygroscopic,increased its weight with lapse of time,–,–
"CC(C)(C)C(=O)Oc1ccc(S(=O)(=O)Nc2ccccc2C(=O)NCC(=O)[O-])cc1.O.O.O.O.[Na+] [the present invention compound, N-[o-(p-pivaloyloxybenzenesulfonylamino)benzoyl]glycine monosodium salt tetrahydrate]",–,–,very low,no change of its weight
